pIC50: −log10 of the molar value.
Target: Bek (Homo sapiens, UniProt P21802)
Experiment: Inhibitory activity against Bek-autophosphorylation using ELISA method in OCUM-2MD3 cells
Type: cell-based
Conditions: 1 hr with compound, read-out: IC50 (concentration necessary for inhibiting 50% of Bek-phosphorylation)
Experimental: Human scirrhus stomach cancer cells OCUM-2MD3 (kindly provided by Dr. Kosei Hirakawa, Osaka City University) were cultured in an RPMI medium containing 10% fetal calf serum (purchased from ICN) within a 5% carbon dioxide incubator until 50 to 90% confluent. The harvested cells were seeded onto 96-well flat-bottom plate in RPMI containing 0.1% fetal calf serum at 3.5×10^4 cells per well, followed by cultivation at 37° C. overnight. A solution of the test compound in dimethyl sulfoxide was added to each well, and the cultivation was continued at 37° C. for additional one hr. The medium was removed, and 50 μl of lysis buffer (20 mM HEPES (pH 7.4), 150 mM NaCl, 0.2% Triton X-100, 10% glycerol, 5 mM sodium orthovanadylate, 5 mM disodium ethylenediaminetetraacetate, and 2 mM Na4P2O7) was then added thereto. The mixture was shaken at 4° C. for 2 hr to prepare cell extracts.
Separately, phosphate buffered saline (50 μl, pH 7.4) containing 5 μg/ml of anti-phospho-tyrosine antibody (PY20; purchased from Transduction Laboratories) was added to a microplate for ELISA (Maxisorp; purchased from NUNC), followed by standing at 4° C. overnight to form a solid phase on the wells. After washing of the plate, 300 μl of a blocking solution was added, followed by standing at room temperature for 2 hr to perform blocking. After washing, the whole quantity of the cell extracts was transferred to the wells, and the plate was then allowed to stand at 4° C. overnight. After washing, an anti-Bek antibody (Bek (C-17), purchased from Santa Cruz Biotechnology) or Anti-Human K-sam Rabbit IgG Affinity Purity (purchased from IBL Co., Ltd.) was allowed to react at room temperature for one hr, and, after washing, a peroxidase-labeled anti-rabbit Ig antibody (purchased from Amersham) was allowed to react at room temperature for one hr. After washing, a chromophoric substrate for peroxidase (purchased from Sumitomo Bakelite Co., Ltd.) was added thereto to initiate a reaction. After a suitable level of color development, a reaction termination solution was added to stop the reaction, and the absorbance at 450 nm was measured with a microplate reader. The Bek-phosphorylation activity for each well was determined by presuming the absorbance without the addition of the medicament to be 100% Bek-phosphorylation activity and the absorbance with the addition of a large excess of a positive control (N-{4-[(6,7-dimethoxy-4-quinolyl)oxy]phenyl}-N′-(3,3-dimethylbutyl)urea, 1000 nM) to be 0% Bek-phosphorylation activity. The concentration of the test compound was varied on several levels, the Bek-phosphorylation inhibitory activity was determined for each case, and the concentration of the test compound necessary for inhibiting 50% of Bek-phosphorylation (IC50) was calculated.

Chain of Bek (P21802 431-767 limits assumed): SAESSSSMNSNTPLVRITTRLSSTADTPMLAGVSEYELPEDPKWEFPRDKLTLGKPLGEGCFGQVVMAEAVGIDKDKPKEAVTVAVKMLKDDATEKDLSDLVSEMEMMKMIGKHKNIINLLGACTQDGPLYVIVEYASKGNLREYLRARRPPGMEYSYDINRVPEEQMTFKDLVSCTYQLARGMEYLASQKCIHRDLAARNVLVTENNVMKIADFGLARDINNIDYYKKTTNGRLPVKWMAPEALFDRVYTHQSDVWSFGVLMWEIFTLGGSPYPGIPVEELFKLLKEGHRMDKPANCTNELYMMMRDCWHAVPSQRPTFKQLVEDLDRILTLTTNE

SMILES | pIC50
COc1cc2c(Oc3ccc(NC(=O)NCCC(C)(C)C)c(F)c3)ccnc2cc1OCCCN1CCC(CO)CC1 [Compound 303, 1-(3,3-Dimethyl-butyl)-3-(2-fluoro-4-{7-[3-(4-hydroxymethyl-piperidin-1-yl)-propoxy]-6-methoxy-quinolin-4-yloxy}-phenyl)-urea] | 7.66
COc1cc2c(Oc3ccc(NC(=O)NCCC(C)(C)C)cc3)ccnc2cc1OCC(O)CN1CCC(Cc2ccccc2)CC1 (stereo not shown) [Compound 260, 1-(4-{7-[3-(4-Benzyl-piperidin-1-yl)-2-hydroxy-propoxy]-6-methoxy-quinolin-4-yloxy}-phenyl)-3-(3,3-dimethyl-butyl)-urea] | 7.57
COc1cc2nccc(Oc3ccc(NC(=O)NC4CCCC(C)(C)C4)cc3)c2cc1OC (stereo not shown) [Compound 108, 1-[4-(6,7-Dimethoxy-quinolin-4-yloxy)-phenyl]-3-(3,3-dimethyl-cyclohexyl)-urea] | > 8.00
CCN(CCO)CCCOc1cc2nccc(Oc3ccc(NC(=O)NCCC(C)(C)C)c(F)c3)c2cc1OC [Compound 344, 1-(3,3-Dimethyl-butyl)-3-[4-(7-{3-[ethyl-(2-hydroxy-ethyl)-amino]-propoxy}-6-methoxy-quinolin-4-yloxy)-2-fluoro-phenyl]-urea] | > 8.00
COc1cc2c(Oc3ccc(NC(=O)NCCC(C)(C)C)cc3Cl)ccnc2cc1OCCN1CCC(CO)CC1 [Compound 312, 1-(3-Chloro-4-{7-[2-(4-hydroxymethyl-piperidin-1-yl)-ethoxy]-6-methoxy-quinolin-4-yloxy}-phenyl)-3-(3,3-dimethyl-butyl)-urea] | 7.69
COc1cc2c(Oc3ccc(Nc4ccc(C(C)(C)C)cc4)cc3)ccnc2cc1OCCCl [Compound 22, (4-Tert-butylphenyl)-{4-[7-(2-chloroethoxy)-6-methoxyquinolin-4-yloxy]phenyl}amine] | 6.72
COc1cc2c(Oc3ccc(Nc4ccc(C(C)(C)C)cc4)cc3)ccnc2cc1OCC1CCCN(C)C1 (stereo not shown) [Compound 56, (4-Tert-butylphenyl)-{4-[6-methoxy-7-(1-methylpiperidin-3-ylmethoxy)quinolin-4-yloxy]phenyl}amine] | 6.39
COc1cc2nccc(Oc3ccc(Nc4ccc(C(C)(C)C)cc4)cc3OC)c2cc1OC [Compound 15, (4-Tert-butylphenyl)-[4-(6,7-dimethoxyquinolin-4-yloxy)-3-methoxyphenyl]amine] | 6.37
COc1cc2c(Oc3ccc(NC(=O)NCCC(C)(C)C)c(F)c3)ccnc2cc1OCCN1C(C)CCCC1C (stereo not shown) [Compound 130, 1-(3,3-Dimethyl-butyl)-3-(4-{7-[2-(2,6-dimethyl-piperidin-1-yl)-ethoxy]-6-methoxy-quinolin-4-yloxy}-2-fluoro-phenyl)-urea] | 6.79
COc1cc(Oc2ccnc3cc(OC)c(OC)cc23)ccc1NC(=O)NCCC(C)(C)C [Compound 138, 1-[4-(6,7-Dimethoxy-quinolin-4-yloxy)-2-methoxy-phenyl]-3-(3,3-dimethyl-butyl)-urea] | 6.50
COc1cc2c(Oc3ccc(NC(=O)NCCC(C)(C)C)c(F)c3)ccnc2cc1OCCN1CCC(CCO)CC1 [Compound 301, 1-(3,3-Dimethyl-butyl)-3-[2-fluoro-4-(7-{2-[4-(2-hydroxy-ethyl)-piperidin-1-yl]-ethoxy}-6-methoxy-quinolin-4-yloxy)-phenyl]-urea] | 7.42
COc1cc2c(Oc3ccc(NC(=O)NCCC(C)(C)C)cc3)ccnc2cc1OCCCN1C[C@@H](C)O[C@@H](C)C1 [Compound 200, 1-(3,3-Dimethyl-butyl)-3-(4-{7-[3-(2,6-dimethyl-morpholin-4-yl)-propoxy]-6-methoxy-quinolin-4-yloxy}-phenyl)-urea] | 7.68
COc1cc2nccc(Oc3ccc(NC(=O)NCCC(C)(C)C)cc3Cl)c2cc1OC [Compound 374, 1-[3-Chloro-4-(6,7-dimethoxy-quinolin-4-yloxy)-phenyl]-3-(3,3-dimethyl-butyl)-urea] | 7.48
COc1cc2c(Oc3ccc(Nc4ccc(C(C)(C)C)cc4)cc3Cl)ccnc2cc1OCCCN1CCC(CO)CC1 [Compound 310, [1-(3-{4-[4-(4-Tert-butyl-phenylamino)-2-chloro-phenoxy]-6-methoxy-quinolin-7-yloxy}-propyl)-piperidin-4-yl]-methanol] | 6.74
CCNCC(O)COc1cc2nccc(Oc3ccc(NC(=O)NCCC(C)(C)C)c(Cl)c3)c2cc1OC (stereo not shown) [Compound 198, 1-{2-Chloro-4-[7-(3-ethylamino-2-hydroxy-propoxy)-6-methoxy-quinolin-4-yloxy]-phenyl}-3-(3,3-dimethyl-butyl)-urea] | 7.91
COc1cc2c(Oc3ccc(Nc4ccc(C(C)(C)C)cc4)cc3)ccnc2cc1OCCN1CCC(CO)CC1 [Compound 81, [1-(2-{4-[4-(4-Tert-butylphenylamino)phenoxy]-6-methoxy-quinolin-7-yloxy}ethyl)piperidin-4-yl]methanol] | 8.00
COc1cc2nccc(Oc3ccc(Nc4ccc(C(C)(C)C)cc4)c(Cl)c3)c2cc1OC [Compound 11, (4-Tert-butylphenyl)-[2-chloro-4-(6,7-dimethoxyquinolin-4-yloxy)phenyl]amine] | 6.49
COc1cc2nccc(Oc3ccc(NC4CCC(C(C)(C)C)CC4)cc3)c2cc1OC (stereo not shown) [Compound 77, (4-Tert-butylcyclohexyl)-[4-(6,7-dimethoxyquinolin-4-yloxy)phenyl]amine] | 5.46
COc1cc2c(Oc3ccc(Nc4ccc(C(C)(C)C)cc4)cc3)ccnc2cc1OCC(O)CN1CCCC1 (stereo not shown) [Compound 61, 1-{4-[4-(4-Tert-butyl-phenylamino)phenoxy]-6-methoxyquinolin-7-yloxy}-3-pyrrolidin-1-ylpropan-2-ol] | 6.73
COc1cc2c(Oc3ccc(NC(=O)NCCC(C)(C)C)c(Cl)c3)ccnc2cc1OCCO [Compound 211, 1-{2-Chloro-4-[7-(2-hydroxy-ethoxy)-6-methoxy-quinolin-4-yloxy]-phenyl}-3-(3,3-dimethyl-butyl)-urea] | > 8.00
COc1cc2c(Oc3ccc(Nc4ccc(C(C)(C)C)cc4)c(F)c3)ccnc2cc1OCCN1CCC(CO)CC1 [Compound 288, [1-(2-{4-[4-(4-Tert-butyl-phenylamino)-3-fluoro-phenoxy]-6-methoxy-quinolin-7-yloxy}-ethyl)-piperidin-4-yl]-methanol] | 6.96
COc1cc2c(Oc3ccc(NC(=O)NCCC(C)(C)C)cc3)ccnc2cc1OCCCN1CCC(N2CCCCC2)CC1 [Compound 248, 1-{4-[7-(3-[1,4′]Bipiperidinyl-1′-yl-propoxy)-6-methoxy-quinolin-4-yloxy]-phenyl}-3-(3,3-dimethyl-butyl)-urea] | 7.90
COc1cc2nccc(Oc3ccc(NC(=O)NCCC(C)(C)C)cc3)c2cc1OCCCCN1CCOCC1 [Compound 227, 1-(3,3-Dimethyl-butyl)-3-{4-[7-methoxy-6-(4-morpholin-4-yl-butoxy)-quinolin-4-yloxy]-phenyl}-urea] | 7.62
COc1cc2nccc(Oc3ccc(Nc4ccc(C(C)(C)C)cc4)cc3)c2cc1OCCNCCO [Compound 356, 2-(2-{4-[4-(4-Tert-butyl-phenylamino)-phenoxy]-7-methoxy-quinolin-6-yloxy}-ethylamino)-ethanol] | 6.46
COc1cc2c(Oc3ccc(NC(=O)NCCC(C)(C)C)c(Cl)c3)ccnc2cc1OCCN(C)C [Compound 166, 1-{2-Chloro-4-[7-(2-dimethylamino-ethoxy)-6-methoxy-quinolin-4-yloxy]-phenyl}-3-(3,3-dimethyl-butyl)-urea] | 7.41
COc1cc2c(Oc3ccc(NC(=O)NCCC(C)(C)C)c(Cl)c3)ccnc2cc1OCCN(C)CCO [Compound 177, 1-[2-Chloro-4-(7-{2-[(2-hydroxy-ethyl)-methyl-amino]-ethoxy}-6-methoxy-quinolin-4-yloxy)-phenyl]-3-(3,3-dimethyl-butyl)-urea] | 7.97
COc1cc2c(Oc3ccc(Nc4ccc(C(C)(C)C)cc4)cc3)ccnc2cc1OCCN(CCO)CCO [Compound 48, 2-[(2-{4-[4-(4-Tert-butyl-phenylamino)phenoxy]-6-methoxy-quinolin-7-yloxy}ethyl)-(2-hydroxyethyl)amino]ethanol] | 7.47
C=C[C@H]1CN2CCC1C[C@@H]2COc1cc2nccc(Oc3ccc(Nc4ccc(C(C)(C)C)cc4)cc3)c2cc1OC (stereo in doubt) [Compound 57, (4-Tert-butylphenyl)-{4-[6-methoxy-7-(5-vinyl-1-azabicyclo-[2.2.2]oct-2-ylmethoxy)quinolin-4-yloxy]phenyl}amine] | 5.42

From patent US7495104B2, “Quinoline or quinazoline derivatives inhibiting auto-phosphorylation of fibroblast growth factor receptors” (Kirin Beer Kabushiki Kaisha, priority 2001, dated 2009)
